# According to patent US9527930B2, “FGF receptor-activating N-sulfate oligosaccharides, preparation thereof, and therapeutic use thereof” (priority 2009, dated 2016):
# Biological target: FGF-2 (Homo sapiens, UniProt P09038)
# Assay: in vitro cellular test of FGF-2 activation
# Type: cell-based
# FGF-2, sequence (P09038 143-288): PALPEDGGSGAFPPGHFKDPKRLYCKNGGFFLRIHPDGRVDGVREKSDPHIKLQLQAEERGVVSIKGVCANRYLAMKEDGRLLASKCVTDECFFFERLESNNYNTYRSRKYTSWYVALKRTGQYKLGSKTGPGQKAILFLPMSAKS
substance,measurement,value
Sodium [methyl(sodium 2-O-sodium sulfonato-α-L-idopyranosyluronate)-(1→4)-(2-deoxy-6-O-sodium sulfonato-2-sodium (sulfonatoamino)-α-D-glucopyranosyl)-(1→4)-[(sodium 2-O-sodium sulfonato-α-L-idopyranosyluronate)-(1→4)-(2-deoxy-6-O-sodium sulfonato-2-sodium sulfonatoamino)-α-D-glucopyranos)-(1→4)]2-2-O-sodium sulfonato-α-L-idopyranoside]uronate [Compound 3],FGF-2 activation compared with the hexasaccharide analogue (C. Tabeur et al.),better FGF-2 activators than the hexasaccharide analogue thereof
